Experimental data reported in patent publication US12139520B2 (priority 2020, dated 2024).
Bridge positions count the residues as written; N and C are the ends. Square brackets hold non-standard residues; d marks the D form. Peptide text beside a SMILES is read from it. Hyp = O=C(O)[C@@H]1C[C@@H](O)CN1; Cit = NC(=O)NCCC[C@H](N)C(=O)O

How the values were obtained:
hAMY3 receptor = target: T1, hAMY3 receptor (Homo sapiens, UniProt O60896+P30988); assay: cAMP assay for in vitro receptor activation, hAMY3-R; type: cell-based; conditions: cAMP assay, hAMY3 receptor; read-out: hAMY3R EC50
T1 sequence (P30988 25-474): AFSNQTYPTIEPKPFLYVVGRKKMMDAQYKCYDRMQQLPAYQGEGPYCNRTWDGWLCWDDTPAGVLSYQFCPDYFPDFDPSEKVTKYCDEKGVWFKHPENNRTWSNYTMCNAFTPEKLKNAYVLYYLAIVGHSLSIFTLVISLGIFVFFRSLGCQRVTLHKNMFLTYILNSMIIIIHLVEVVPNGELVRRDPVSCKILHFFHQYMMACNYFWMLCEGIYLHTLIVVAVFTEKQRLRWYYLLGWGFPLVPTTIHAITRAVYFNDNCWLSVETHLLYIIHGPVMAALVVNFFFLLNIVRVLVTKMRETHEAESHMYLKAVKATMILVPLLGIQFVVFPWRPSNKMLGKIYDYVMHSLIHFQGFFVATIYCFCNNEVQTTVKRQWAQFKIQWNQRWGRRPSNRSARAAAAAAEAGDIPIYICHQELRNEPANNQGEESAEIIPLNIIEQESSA
T1 sequence (O60896 24-148 partner): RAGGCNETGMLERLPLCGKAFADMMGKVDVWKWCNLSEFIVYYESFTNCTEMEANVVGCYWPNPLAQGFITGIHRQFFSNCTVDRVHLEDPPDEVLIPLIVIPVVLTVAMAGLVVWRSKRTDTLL
Method in brief: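 Accumulated cAMP was detected by time-resolved FRET one hour after reagent addition. Beforehand, hAMY3-R-overexpressing monoclonal cells (2000/well, DPBS, 0.05% casein, 0.5 mM IBMX) received graded doses of compound for 30 min at room temperature; human amylin served as positive control.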

[1] = Physical stability of peptide analogues (Thioflavin T fibrillation); type: physicochemical; conditions: maximum ThT signal normalized between hAMY maximum and buffer background; 40° C., shaking, four days; pH 7 per table title
Method in brief: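 ThT fluorescence (450 nm excitation, 480 nm emission; 4 μM dye) was read every 10 min over four days at 40° C under 700 rpm shaking stress, after 1 h in pH 4 acetate or pH 7 phosphate (50 mM). Peak smoothed signal expressed as percent, scaled between buffer background and hAMY maximum.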

Compound | EC50 (hAMY3 receptor) | Max ThT signal (%) [1]
CC[C@H](C)[C@H](NC(=O)[C@H](CCC(N)=O)NC(=O)[C@H](Cc1c[nH]cn1)NC(=O)[C@H](C)NC(=O)[C@H](CC(C)C)NC(=O)[C@H](CCCNC(N)=O)NC(=O)[C@H](CCC(N)=O)NC(=O)[C@@H](NC(=O)[C@@H](NC(=O)[C@@H]1CSSC[C@H](NC(=O)[C@@H](N)CCCCN)C(=O)N[C@@H](CC(N)=O)C(=O)N[C@@H]([C@@H](C)O)C(=O)N[C@@H](C)C(=O)N[C@@H]([C@@H](C)O)C(=O)N1)[C@@H](C)O)C(C)C)C(=O)N[C@@H](Cc1ccc(O)cc1)C(=O)N[C@@H](CCC(N)=O)C(=O)N[C@@H](Cc1ccccc1)C(=O)N[C@H](C(=O)N[C@@H](CC(=O)O)C(=O)N[C@@H](CCCCN)C(=O)N[C@@H](CC(=O)O)C(=O)N[C@@H](CCCCN)C(=O)N[C@@H](CC(=O)O)C(=O)N[C@@H](CC(N)=O)C(=O)N[C@H](C(=O)N[C@@H](C)C(=O)N1CCC[C@H]1C(=O)N[C@@H](CCCNC(=N)N)C(=O)N[C@H](C(=O)N[C@@H](CCCCN)C(=O)N[C@H](C(=O)NCC(=O)N[C@@H](CO)C(=O)N[C@@H](CC(N)=O)C(=O)NCC(=O)N[C@@H](Cc1ccc(O)cc1)C(N)=O)C(C)C)[C@@H](C)O)C(C)C)[C@@H](C)O [compound 257] (H-KCNTATCTVQ[Cit]LAHQIYQFTDKDKDNVAPRTKVGSNGY-NH2; disulfide 2-7; N-terminus assumed) | 0.016 nM | 20.950%
CC[C@H](C)[C@H](NC(=O)[C@H](CCC(N)=O)NC(=O)[C@H](Cc1c[nH]cn1)NC(=O)[C@H](C)NC(=O)[C@H](CC(C)C)NC(=O)[C@H](CCCNC(=N)N)NC(=O)[C@H](CCC(N)=O)NC(=O)[C@@H](NC(=O)[C@@H](NC(=O)[C@@H]1CSSC[C@H](NC(=O)CN)C(=O)N[C@@H](CCCNC(=N)N)C(=O)N[C@@H](Cc2ccccc2)C(=O)NCC(=O)N[C@@H]([C@@H](C)O)C(=O)N1)[C@@H](C)O)C(C)C)C(=O)N[C@@H](Cc1ccc(O)cc1)C(=O)N[C@@H](CCC(N)=O)C(=O)N[C@@H](Cc1ccccc1)C(=O)N[C@H](C(=O)N[C@@H](CC(=O)O)C(=O)N[C@@H](CCCCN)C(=O)N[C@@H](CC(=O)O)C(=O)N[C@@H](CCCCN)C(=O)N[C@@H](CC(=O)O)C(=O)N[C@@H](CC(N)=O)C(=O)N[C@H](C(=O)N[C@@H](C)C(=O)N1CCC[C@H]1C(=O)N[C@@H](CCCNC(=N)N)C(=O)N[C@@H](CO)C(=O)N[C@@H](CCCCN)C(=O)N[C@H](C(=O)NCC(=O)N1CCC[C@H]1C(=O)N[C@@H](CCC(N)=O)C(=O)NCC(=O)N1C[C@H](O)C[C@H]1C(N)=O)C(C)C)C(C)C)[C@@H](C)O [compound 152] (H-GCRFGTCTVQRLAHQIYQFTDKDKDNVAPRSKVGPQG[Hyp]-NH2; disulfide 2-7; N-terminus assumed) | 0.041 nM | 1.900%
CC[C@H](C)[C@H](NC(=O)[C@H](CCC(N)=O)NC(=O)[C@H](Cc1c[nH]cn1)NC(=O)[C@H](C)NC(=O)[C@H](CC(C)C)NC(=O)[C@H](CCCNC(=N)N)NC(=O)[C@H](CCC(N)=O)NC(=O)[C@@H](NC(=O)[C@@H](NC(=O)[C@@H]1CSSC[C@H](NC(=O)CN)C(=O)N[C@@H](CCCNC(=N)N)C(=O)N[C@@H](Cc2ccccc2)C(=O)NCC(=O)N[C@@H]([C@@H](C)O)C(=O)N1)[C@@H](C)O)C(C)C)C(=O)N[C@@H](Cc1ccc(O)cc1)C(=O)N[C@@H](CCC(N)=O)C(=O)N[C@@H](Cc1ccccc1)C(=O)N[C@H](C(=O)N[C@@H](CC(=O)O)C(=O)N[C@@H](CCCCN)C(=O)N[C@@H](CC(=O)O)C(=O)N[C@@H](CCCCN)C(=O)N[C@@H](CC(=O)O)C(=O)N[C@@H](CC(N)=O)C(=O)N[C@H](C(=O)N[C@@H](C)C(=O)N1CCC[C@H]1C(=O)N[C@@H](CCCNC(=N)N)C(=O)N[C@@H](CO)C(=O)N[C@@H](CCCCN)C(=O)N[C@H](C(=O)N[C@@H](CO)C(=O)N1CCC[C@H]1C(=O)N[C@@H](CCC(N)=O)C(=O)NCC(=O)N1C[C@H](O)C[C@H]1C(N)=O)C(C)C)C(C)C)[C@@H](C)O [compound 167] (H-GCRFGTCTVQRLAHQIYQFTDKDKDNVAPRSKVSPQG[Hyp]-NH2; disulfide 2-7; N-terminus assumed) | 0.056 nM | 6.600%

The remaining lines, values ahead:

EC50 (hAMY3 receptor) | Max ThT signal (%) [1] | Compound
0.022 nM | 1.700% | CC[C@H](C)[C@H](NC(=O)[C@H](CCC(N)=O)NC(=O)[C@H](Cc1c[nH]cn1)NC(=O)[C@H](C)NC(=O)[C@H](CC(C)C)NC(=O)[C@H](Cc1c[nH]c2ccccc12)NC(=O)[C@H](CCC(N)=O)NC(=O)[C@@H](NC(=O)[C@@H](NC(=O)[C@@H]1CSSC[C@H](NC(=O)CN)C(=O)N[C@@H](CCCNC(=N)N)C(=O)N[C@@H](Cc2ccccc2)C(=O)NCC(=O)N[C@@H]([C@@H](C)O)C(=O)N1)[C@@H](C)O)C(C)C)C(=O)N[C@@H](Cc1ccc(O)cc1)C(=O)N[C@@H](CCC(N)=O)C(=O)N[C@@H](Cc1ccccc1)C(=O)N[C@H](C(=O)N[C@@H](CC(=O)O)C(=O)N[C@@H](CCCCN)C(=O)N[C@@H](CC(=O)O)C(=O)N[C@@H](CCCCN)C(=O)N[C@@H](CC(=O)O)C(=O)N[C@@H](CC(N)=O)C(=O)N[C@H](C(=O)N[C@@H](C)C(=O)N1CCC[C@H]1C(=O)N[C@@H](CCCNC(=N)N)C(=O)N[C@H](C(=O)N[C@@H](CC(N)=O)C(=O)N[C@H](C(=O)N[C@@H](CO)C(=O)N1CCC[C@H]1C(=O)N[C@@H](CCC(N)=O)C(=O)NCC(=O)N[C@@H](Cc1ccc(O)cc1)C(N)=O)C(C)C)[C@@H](C)O)C(C)C)[C@@H](C)O [compound 340] (H-GCRFGTCTVQWLAHQIYQFTDKDKDNVAPRTNVSPQGY-NH2; disulfide 2-7; N-terminus assumed)
0.019 nM | 16.800% | CC[C@H](C)[C@H](NC(=O)[C@H](CCC(N)=O)NC(=O)[C@H](Cc1c[nH]cn1)NC(=O)[C@H](C)NC(=O)[C@H](CC(C)C)NC(=O)[C@H](Cc1c[nH]c2ccccc12)NC(=O)[C@H](CCC(N)=O)NC(=O)[C@@H](NC(=O)[C@@H](NC(=O)[C@@H]1CSSC[C@H](NC(=O)CN)C(=O)N[C@@H](CCCNC(=N)N)C(=O)N[C@@H](Cc2ccccc2)C(=O)NCC(=O)N[C@@H]([C@@H](C)O)C(=O)N1)[C@@H](C)O)C(C)C)C(=O)N[C@@H](Cc1ccc(O)cc1)C(=O)N[C@@H](CCC(N)=O)C(=O)N[C@@H](Cc1ccccc1)C(=O)N[C@H](C(=O)N[C@@H](CC(=O)O)C(=O)N[C@@H](CCCCN)C(=O)N[C@@H](CC(=O)O)C(=O)N[C@@H](CCCCN)C(=O)N[C@@H](CC(=O)O)C(=O)N[C@@H](CC(N)=O)C(=O)N[C@H](C(=O)N[C@@H](C)C(=O)N1CCC[C@H]1C(=O)N[C@@H](CCCNC(=N)N)C(=O)N[C@H](C(=O)N[C@@H](CCCCN)C(=O)N[C@H](C(=O)N[C@@H](CO)C(=O)N1CCC[C@H]1C(=O)N[C@@H](CC(N)=O)C(=O)NCC(=O)N1C[C@H](O)C[C@H]1C(N)=O)[C@@H](C)CC)[C@@H](C)O)C(C)C)[C@@H](C)O [compound 337] (H-GCRFGTCTVQWLAHQIYQFTDKDKDNVAPRTKISPNG[Hyp]-NH2; disulfide 2-7; N-terminus assumed)
